Reference: ChEMBL document CHEMBL6182913, “Design of Potent Small-Molecule Stimulator of Interferon Gene Inhibitor and Stimulator of Interferon Gene Mutant-Specific Degrader” (J Med Chem, 2025)
Active and inactive are the calls of the source. The calls are words filed in the database; no cut-off is given here.

Key:
[1] = molecular target: T1, Stimulator of interferon genes protein (Homo sapiens, UniProt Q86WV6); assay: Inhibition of cGAMP-induced STING R232 mutant transfected human THP-1 cells preincubated with compound for 6 hrs followed by cGAMP addition and measured after 18 hrs by QUANTI-Luc based microplate reader analysis; assay type: cell-based
Target sequence in this assay (Q86WV6 whole entry, looked up, stated change not applied): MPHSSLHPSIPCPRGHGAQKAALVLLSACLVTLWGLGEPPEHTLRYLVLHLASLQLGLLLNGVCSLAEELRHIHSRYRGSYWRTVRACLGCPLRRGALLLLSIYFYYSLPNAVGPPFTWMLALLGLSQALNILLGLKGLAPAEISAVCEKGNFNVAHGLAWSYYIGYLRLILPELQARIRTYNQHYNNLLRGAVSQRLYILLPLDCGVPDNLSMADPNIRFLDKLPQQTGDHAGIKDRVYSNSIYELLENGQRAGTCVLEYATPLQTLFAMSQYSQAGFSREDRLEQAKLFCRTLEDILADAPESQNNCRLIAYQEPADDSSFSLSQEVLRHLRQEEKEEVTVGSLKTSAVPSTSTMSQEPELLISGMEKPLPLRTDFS

[2] = molecular target: T2, Stimulator of interferon genes protein (Mus musculus) (UniProt Q3TBT3); assay: In vivo inhibition of cGAMP-induced STING activation in autoimmune disease female C57BL/6 mouse model assessed as decrease in cGAMP-induced serum INF-beta level at 10 mg/kg, sc pretreated with compound for 2 hrs followed by cGAMP addition and measured after 3 hrs by ELISA; assay type: functional, organism-based
T2 sequence (whole entry): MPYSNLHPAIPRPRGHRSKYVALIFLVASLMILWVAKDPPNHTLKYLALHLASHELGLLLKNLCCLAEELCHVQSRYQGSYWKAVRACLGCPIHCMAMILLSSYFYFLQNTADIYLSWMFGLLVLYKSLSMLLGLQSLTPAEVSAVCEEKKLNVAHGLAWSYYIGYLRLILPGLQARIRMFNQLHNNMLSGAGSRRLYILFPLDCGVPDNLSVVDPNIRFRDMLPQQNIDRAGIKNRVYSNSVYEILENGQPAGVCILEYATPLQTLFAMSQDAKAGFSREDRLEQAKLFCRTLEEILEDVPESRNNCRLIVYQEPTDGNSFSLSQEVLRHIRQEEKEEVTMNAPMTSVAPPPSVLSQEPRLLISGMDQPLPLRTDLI

[3] = molecular target: T1, Stimulator of interferon genes protein; assay: Inhibition of STING activation in human THP1-Blue ISG cells assessed as inhibition of c-GAMP-induced STING dimerization at 0.1 to 1 uM preincubated with compound for 6 hrs followed by cGAMP addition and measured after 3 hrs by Western blotting analysis; assay type: cell-based; conditions: dose 0.1-1 µM, time 9.0 hrs
Target sequence in this assay (Q86WV6 whole entry): as the sequence (Q86WV6 whole entry, looked up, stated change not applied) above

[4] = molecular target: T2, Stimulator of interferon genes protein (Mus musculus); assay: Inhibition of STING in mouse BMDM cells assessed as inhibition of poly(I:C) -induced IFN-beta release at 0.05 to 0.5 uM pretreated with compound for 6 hrs followed by poly(I:C) addition and measured after 18 hrs by ELISA; assay type: cell-based; conditions: dose 0.05-0.5 µM, time 24.0 hrs
[5] = molecular target: T1, Stimulator of interferon genes protein; assay: Inhibition of cGAMP-induced STING S154 mutant transfected in human THP-1 cells preincubated with compound for 6 hrs followed by cGAMP addition and measured after 18 hrs by QUANTI-Luc based microplate reader analysis; assay type: cell-based
Target sequence in this assay (Q86WV6 whole entry, looked up, stated change not applied): as the sequence (Q86WV6 whole entry, looked up, stated change not applied) above

[6] = molecular target: T3, Stimulator of interferon genes protein (Homo sapiens, UniProt Q86WV6, G230A/R293Q/R71H); assay: Inhibition of cGAMP-induced STING HAQ mutant transfected in human THP1-Blue ISG cells preincubated with compound for 6 hrs followed by cGAMP addition and measured after 18 hrs by QUANTI-Blue based microplate reader analysis; assay type: cell-based
[7] = molecular target: T2, Stimulator of interferon genes protein (Mus musculus); assay: Inhibition of STING in mouse BMDM cells assessed as inhibition of ODN 2395-induced IFN-beta release at 0.05 to 0.5 uM pretreated with compound for 6 hrs followed by ODN 2395 addition and measured after 18 hrs by ELISA; assay type: cell-based; conditions: dose 0.05-0.5 µM, time 24.0 hrs
[8] = tested on: Stimulator of interferon genes protein (Homo sapiens), Q86WV6 [UNDEFINED MUTATION]; assay: Induction of STING M155 mutant degradation in human THP-1 cells at 1 uM preincubated with MLN4924 for 2 hrs followed by compound addition and measured after 22 hrs by Western blotting analysis; assay type: cell-based
[9] = molecular target: T1, Stimulator of interferon genes protein; assay: Induction of STING M155 mutant degradation in human THP-1 cells incubated for 24 hrs by Western blotting analysis; assay type: cell-based
Target sequence in this assay (Q86WV6 whole entry, looked up, stated change not applied): as the sequence (Q86WV6 whole entry, looked up, stated change not applied) above

[10] = molecular target: T2, Stimulator of interferon genes protein (Mus musculus); assay: Inhibition of STING in mouse BMDM cells assessed as inhibition of cGAMP-induced CXCL-10 release at 0.05 to 0.5 uM pretreated with compound for 6 hrs followed by cGAMP addition and measured after 18 hrs by ELISA; assay type: cell-based; conditions: dose 0.05-0.5 µM, time 24.0 hrs
[11] = tested on: Stimulator of interferon genes protein (Homo sapiens), Q86WV6 [UNDEFINED MUTATION]; assay: Induction of STING M155 mutant degradation in human THP-1 cells at 5 uM incubated for 24 hrs by global proteomics analysis; assay type: cell-based
[12] = tested on: Stimulator of interferon genes protein (Homo sapiens), Q86WV6 [UNDEFINED MUTATION]; assay: Induction of STING M155 mutant degradation in human THP-1 cells at 1 uM incubated for 12 hrs by Western blotting analysis; assay type: cell-based
[13] = Cytotoxicity against human THP1-Blue ISG cells assessed as inhibition of cell growth at 10 uM incubated for 24 hrs by MTS assay relative to control; assay type: toxicity, cell-based
[14] = Apparent oral clearance in mouse at 20 mg/kg, po by LC-MS/MS analysis; assay type: ADME, organism-based; conditions: in vivo
[15] = molecular target: T2, Stimulator of interferon genes protein (Mus musculus); assay: In vivo inhibition of cGAMP-induced STING activation in autoimmune disease female C57BL/6 mouse model assessed as decrease in cGAMP-induced serum INF-beta level at 20 mg/kg, po pretreated with compound for 2 hrs followed by cGAMP addition and measured after 3 hrs by ELISA; assay type: functional, organism-based
[16] = molecular target: T2, Stimulator of interferon genes protein (Mus musculus); assay: In vivo inhibition of cGAMP-induced STING activation in autoimmune disease female C57BL/6 mouse model assessed as decrease in cGAMP-induced serum CXCL-10 level at 10 mg/kg, sc pretreated with compound for 2 hrs followed by cGAMP addition and measured after 3 hrs by ELISA; assay type: functional, organism-based
[17] = molecular target: T3, Stimulator of interferon genes protein; assay: Inhibition of diABZI-induced STING HAQ mutant transfected in human THP1-Blue ISG cells preincubated with compound for 6 hrs followed by diABZI addition and measured after 18 hrs by QUANTI-Blue based microplate reader analysis; assay type: cell-based
[18] = molecular target: T1, Stimulator of interferon genes protein; assay: Inhibition of STING activation in human THP1-Blue ISG cells assessed as decrease in cGAMP-induced STING phosphorylation at 0.1 to 1 uM preincubated with compound for 6 hrs followed by cGAMP addition and measured after 3 hrs by Western blotting analysis; assay type: cell-based; conditions: dose 0.1-1 µM, time 9.0 hrs
Target sequence in this assay (Q86WV6 whole entry): as the sequence (Q86WV6 whole entry, looked up, stated change not applied) above

[19] = tested on: Stimulator of interferon genes protein (Homo sapiens), Q86WV6 [UNDEFINED MUTATION]; assay: Induction of STING M155 mutant degradation in human THP-1 cells by measuring maximum efficacy at 0.01 to 10 uM incubated for 24 hrs by Western blotting analysis relative to control; assay type: cell-based; conditions: dose 0.01-10 µM
[20] = molecular target: T1, Stimulator of interferon genes protein; assay: Induction of STING S154 mutant degradation in human THP-1 cells incubated for 24 hrs by Western blotting analysis; assay type: cell-based
Target sequence in this assay (Q86WV6 whole entry, looked up, stated change not applied): as the sequence (Q86WV6 whole entry, looked up, stated change not applied) above

[21] = molecular target: T4, Stimulator of interferon genes protein (Mus musculus, UniProt Q3TBT3); assay: Inhibition of cGAMP-induced mouse STING transfected in human THP-1 cells preincubated with compound for 6 hrs followed by cGAMP addition and measured after 18 hrs by QUANTI-Luc based microplate reader analysis; assay type: cell-based
T4 sequence (Q3TBT3 whole entry): T2 sequence (whole entry)

[22] = tested on: Stimulator of interferon genes protein (Homo sapiens), Q86WV6 [UNDEFINED MUTATION]; assay: Induction of STING M155 mutant degradation in human THP-1 cells at 1 uM incubated for 48 hrs by Western blotting analysis; assay type: cell-based
[23] = tested on: Stimulator of interferon genes protein (Homo sapiens), Q86WV6 [UNDEFINED MUTATION]; assay: Induction of STING S154 mutant degradation in human THP-1 cells at 1 uM incubated for 12 hrs by Western blotting analysis; assay type: cell-based
[24] = molecular target: T2, Stimulator of interferon genes protein (Mus musculus); assay: Inhibition of STING in mouse BMDM cells assessed as inhibition of LPS-induced IFN-beta release at 0.05 to 0.5 uM pretreated with compound for 6 hrs followed by LPS addition and measured after 18 hrs by ELISA; assay type: cell-based; conditions: dose 0.05-0.5 µM, time 24.0 hrs
[25] = tested on: Stimulator of interferon genes protein (Homo sapiens), Q86WV6 [UNDEFINED MUTATION]; assay: Induction of STING S154 mutant degradation in human THP-1 cells by measuring maximum efficacy at 0.01 to 10 uM incubated for 24 hrs by Western blotting analysis relative to control; assay type: cell-based; conditions: dose 0.01-10 µM
[26] = tested on: Stimulator of interferon genes protein (Homo sapiens), Q86WV6 [UNDEFINED MUTATION]; assay: Induction of STING S154 mutant degradation in human THP-1 cells at 1 uM incubated for 48 hrs by Western blotting analysis; assay type: cell-based

Chain of Stimulator of interferon genes protein (Homo sapiens), Q86WV6 [UNDEFINED MUTATION] (Q86WV6 whole entry, looked up, stated change not applied): as the sequence (Q86WV6 whole entry, looked up, stated change not applied) above
T3 sequence (Q86WV6 whole entry R71H/G230A/R293Q): as the sequence (Q86WV6 whole entry, looked up, stated change not applied) above, with R71H, G230A, R293Q counted along it

Structure (SMILES): COc1ccc2c(c1)C(=O)N(c1ccc(C(C)(C)C)c(F)c1)C(c1cc3cc(-c4ccc(C(=O)Nc5ccc(O)c(NS(C)(=O)=O)c5)cc4)ccc3o1)C2C(N)=O (stereo unspecified)
- IC50 [1]: 30 nM
- inhibition [2]: Active
- inhibition [3]: Active
- inhibition [4]: inactive
- IC50 [5]: 280 nM
- IC50 [6]: 110 nM
- inhibition [7]: inactive
- Activity [8]: Active
- DC50 [9]: 760 nM
- inhibition [10]: Active
- Activity [11]: Active
- Activity [12]: Active
- inhibition at 24 h, 10 µM [13]: 34.4%
- CL/F [14]: 163 mL/min/kg
- inhibition [15]: Active
- inhibition [16]: Active
- IC50 [17]: 120 nM
- inhibition [18]: Active
- Emax [19]: 92%
- DC50 [20]: 310 nM
- IC50 [21]: 30 nM
- Activity [22]: Active; Compound Showed Maximum Degradation
- Activity [23]: Active
- inhibition [24]: inactive
- Emax [25]: 89%
- Activity [26]: Active; Compound Showed Maximum Degradation
